Results as given in article PMC7911516, “Investigation of the Factors Responsible for the Poor Oral Bioavailability of Acacetin in Rats: Physicochemical and Biopharmaceutical Aspects” (Pharmaceutics, 2021).
Like-named read-outs stand apart in the source and are kept apart here.

Key:
[1] = Unbound fraction by rapid equilibrium dialysis; assay type: in vitro ADME, rat
Experimental: The fractions of unbound acacetin in plasma (fuP), microsomes (fuMIC), SGF (fuSGF), and SIF(fuSIF) were measured using a rapid equilibrium dialysis device (Thermo Fisher Scientific, Inc., Waltham, MA, USA) as previously described with slight modifications. Briefly, 0.2 mL of the matrix spiked with acacetin (10 μM) was placed into the “sample” chamber, and 0.4 mL of PBS was placed into the adjacent “buffer” chamber. The fractions of unbound acacetin were calculated as the concentration ratio between the two chambers. The blood-to-plasma concentration ratio (RB) of acacetin was determined as described previously. Briefly, 1-mL blood spiked with acacetin (1 μM) was incubated at 37 °C for 30 min. The blood sample was centrifuged at 2000× g for 5 min to prepare the plasma sample. The concentrations of acacetin in the aforementioned plasma and buffer samples were measured using the LC-MS/MS method.

[2] = Stability in phosphate buffers, plasma, RLM, SGF and SIF; assay type: physicochemical; conditions: for Initially spiked amount remaining after 24 h: 10 μM
Experimental: The stability of acacetin was determined in several matrices such as phosphate buffers (pH 1.0, 3.0, 5.0, 7.0, 9.0, 11.0, and 13.0), plasma, RLM, SGF, and SIF. The samples spiked with acacetin (10 μM) were incubated at 37 °C, and 120 μL aliquots of the samples were collected at 0, 15, 30, 60, 120, 180, 240, 360, 420, 600, and 1440 min. The collected samples were diluted with acetonitrile to obtain a proper concentration and analyzed by the LC-MS/MS method.

[3] = In situ closed-loop study (jejunal loop); assay type: in vivo, rat
Experimental: The in situ closed-loop study was performed as previously described with slight modification. Briefly, after minimal abdominal incision under light ether anesthetization and sufficient washing of the contents within the GI tract, the jejunal loop was closed by ligation performed at approximately 2 cm distal to both ends of each jejunal section. Acacetin suspension (final concentration: 1 mg/mL) was prepared by dispersing acacetin powder in the vehicle solution for oral study and subsequently diluting it 5-fold with the SIF (final composition: 2% DMSO, 1% EtOH, and 17% PEG400 in the SIF). After injecting 0.2 mL of acacetin suspension into each loop using a l-mL 31-gauge syringe, the whole GI tract was carefully returned to its original position in the abdominal cavity. At 4 h after the injection, each loop was removed, transferred into a beaker containing 50 mL of methanol, and handled similar to the GI samples in the in vivo pharmacokinetic study. As control (in vitro isolated loop) groups, the jejunal closed-loop was prepared in the same manner as the in situ loop study, removed from the rat intestinal tract using scissors with special care not to damage the loop, and transferred to a glass beaker. Then, acacetin dispersed in the vehicle was injected into the isolated loop. After 0-h and 4-h incubation at 37 °C, the remaining fraction of acacetin in the isolated loop was measured in the same manner as the procedure for the GI sample in the in vivo pharmacokinetic study.

rat CYP2C = assay: Disappearance in RLM with CYP isoform-selective inhibitor SPZ; assay type: in vitro ADME; conditions: acacetin 20 μM, 10-μM SPZ, NADPH, 5 min
Experimental: To investigate hepatic phase I enzymes- and UGT-dependent metabolism of acacetin, the disappearance rate of acacetin at concentrations of 1–200 µM in RLM was measured in the presence of both NADPH and UDPGA. The substrate (acacetin) concentration ((S); µM) versus the initial metabolic rate (V; nmol/min/mg protein) profiles were interpreted based on Michaelis–Menten kinetics, and relevant parameters were estimated via nonlinear regression analysis (GraphPad Prism ver. 5.01; GraphPad Software, San Diego, CA, USA) using the following Michaelis–Menten equation: V = Vmax× [S]/Km× [S] where Km and Vmax are the Michaelis–Menten constant and maximal metabolic rate, respectively. The unbound intrinsic metabolic clearance (CLint) was calculated as Vmax/(Km × fuMIC). Furthermore, the disappearance of acacetin (20 μM) in the absence or presence of specific CYP isoform-selective inhibitors in RLM was determined to study the hepatic CYP-mediated metabolism of acacetin. Microsomal incubation mixtures (total volume of 200 μL) were prepared as follows: RLM (0.5 mg/mL microsomal protein), 1 mM NADPH, 10 mM MgCl2, 50 mM potassium phosphate buffer, acacetin, with or without CYP isoform-selective inhibitors (10 μM NF for rat CYP1A, 10-μM SPZ for rat CYP2C, 10-μM QND for rat CYP2D, and 10-μM KCZ for rat CYP3A). […]

[4] = set-up: method as in PMID 28421306; conditions: oral, 5 mg/kg in mice; cited from earlier work
Caco-2 cell = system: Caco-2 cell; set-up: method as in PMID 22292790; conditions: cited from earlier work

Structure (SMILES): COc1ccc(-c2cc(=O)c3c(O)cc(O)cc3o2)cc1 [acacetin, Acacetin]
- fraction unbound at 10 μM ([1]; SGF, 10 μM, read-out: fuSGF (fraction unbound in SGF)): 0.822 ± 0.026
- fraction unbound at 10 μM ([1]; SIF, 10 μM, read-out: fuSIF (fraction unbound in SIF)): 0.714 ± 0.009
- fraction unbound at 10 μM ([1]; Sprague-Dawley, rat, liver microsomes (RLM), RLM, 10 μM, read-out: fuMIC (fraction unbound in microsomes)): 0.302 ± 0.021
- fraction unbound at 10 μM ([1]; Sprague-Dawley, rat, plasma and liver microsomes (RLM), range over plasma and RLM, read-out: Unbound fraction in plasma and RLM): 0.00901 to 0.317
- fraction unbound at 10 μM ([1]; Sprague-Dawley, rat plasma, 10 μM, read-out: fuP (fraction unbound in plasma)): 0.0102 ± 0.0011
- fraction unbound at 10 μM ([1]; range over SGF and SIF, read-out: Unbound fraction in SGF and SIF): 0.707 to 0.849
- Stability (stable = more than 85% remaining) ([2]; SGF and SIF): unstable
- Initially spiked amount remaining after 24 h ([2]; SGF and SIF, 37 °C): 27.5–62.0%
- Stability (stable = more than 85% remaining) ([2]; acidic and neutral conditions (pH 1–7)): unstable
- Stability (stable = more than 85% remaining) ([2]; basic conditions (pH 9, 11, 13)): stable
- Remaining after 24 h ([2]; pH 7 phosphate buffer and simulated GI fluids (as worded in abstract)): 27.5–62.0%
- Initially spiked amount remaining after 24 h ([2]; phosphate buffers, pH range 1–7, 37 °C): 16.1–35.9%
- Stability (stable = more than 85% remaining) ([2]; plasma and RLM, absence of NADPH and UDPGA/alamethicin): stable
- Fraction of dose eliminated by GI and hepatic first-pass metabolism ([3]; = 2.9 − 2.34): 0.56 % of the dose
- Fraction unabsorbed from the GI tract ([3]; =100 − 2.9): 97.1 % of the dose
- Portion absorbed from the loop ([3]; difference isolated loop vs in situ loop): 2.9%
- Remaining fraction in the in vitro isolated loop ([3]; jejunal loop, 4-h incubation at 37 °C): 78.9%
- Remaining fraction in the in situ loop ([3]; rat jejunal loop, 4 h after injection): 76.0%
- Reduction of relative disappearance rate in presence of SPZ (rat CYP2C): 25.8%
- Cmax [4]: 17 ng/mL
- F [4]: 1.30%
- Caco-2 cell permeability (Caco-2 cell): 2.81 × 10^–6 cm/s
